The source made the active and inactive calls. No rule for the calls is given here.
Tested on: CCRIS mutagenicity, Ames/micronucleus/aberration tests
Assay: CCRIS mutagenicity studies
[1] = Test System: AMES SALMONELLA TYPHIMURIUM, Strain/Indicator: TA100, Metabolic Activation: NONE, Method: PREINCUBATION
[2] = Test System: AMES SALMONELLA TYPHIMURIUM, Strain/Indicator: TA1535, Metabolic Activation: NONE, Method: PREINCUBATION

Measured: mutagenic call

CC(=O)Nc1ccc(-c2ccc(NC(C)=O)cc2)cc1
active: Test System: AMES SALMONELLA TYPHIMURIUM, Strain/Indicator: TA1538, Metabolic Activation: GUINEA PIG, LIVER, HEPATOCYTES, Method: PREINCUBATION active; positive | Test System: AMES SALMONELLA TYPHIMURIUM, Strain/Indicator: TA1538, Metabolic Activation: GUINEA PIG, LIVER, S-9, ACETYL-COA (0.1 OR 1 MILLIMOLAR), Method: PREINCUBATION active; positive | Test System: AMES SALMONELLA TYPHIMURIUM, Strain/Indicator: TA1538, Metabolic Activation: GUINEA PIG, LIVER, S-9, Method: PREINCUBATION active; positive | Test System: AMES SALMONELLA TYPHIMURIUM, Strain/Indicator: TA1538, Metabolic Activation: HAMSTER, LIVER, HEPATOCYTES, Method: PREINCUBATION active; positive | Test System: AMES SALMONELLA TYPHIMURIUM, Strain/Indicator: TA1538, Metabolic Activation: HAMSTER, LIVER, S-9, ACETYL-COA (0.1 OR 1 MILLIMOLAR), Method: PREINCUBATION active; positive | Test System: AMES SALMONELLA TYPHIMURIUM, Strain/Indicator: TA1538, Metabolic Activation: HAMSTER, LIVER, S-9, Method: PREINCUBATION active; positive | Test System: AMES SALMONELLA TYPHIMURIUM, Strain/Indicator: TA1538, Metabolic Activation: RAT, LIVER, HEPATOCYTES, Method: PREINCUBATION active; positive | Test System: AMES SALMONELLA TYPHIMURIUM, Strain/Indicator: TA1538, Metabolic Activation: RAT, LIVER, S-9, ACETYL-COA (0.1 OR 1 MILLIMOLAR), Method: PREINCUBATION active; positive | Test System: AMES SALMONELLA TYPHIMURIUM, Strain/Indicator: TA1538, Metabolic Activation: RAT, LIVER, S-9, Method: PREINCUBATION active; positive
inactive: Test System: Ames Salmonella typhimurium, Strain/Indicator: TA102, Metabolic Activation: None, Method: Preincubation inactive; negative | Test System: Ames Salmonella typhimurium, Strain/Indicator: TA102, Metabolic Activation: Rat, liver, S-9, Aroclor 1254, 4%, Method: Preincubation inactive; negative

CC[N+](=O)[O-]
inactive: Test System: AMES SALMONELLA TYPHIMURIUM, Strain/Indicator: TA98, Metabolic Activation: NONE, Method: PREINCUBATION inactive; negative | Test System: AMES SALMONELLA TYPHIMURIUM, Strain/Indicator: TA98, Metabolic Activation: RAT, LIVER, S-9, KANECHLOR 500, Method: PREINCUBATION inactive; negative | [1] inactive; negative | Test System: AMES SALMONELLA TYPHIMURIUM, Strain/Indicator: TA100, Metabolic Activation: RAT, LIVER, S-9, KANECHLOR 500, Method: PREINCUBATION inactive; negative | Test System: AMES SALMONELLA TYPHIMURIUM, Strain/Indicator: TA102, Metabolic Activation: NONE, Method: PREINCUBATION inactive; negative | Test System: E. COLI, Strain/Indicator: WP2 UVRA (PKM101), Metabolic Activation: NONE, Method: PREINCUBATION inactive; negative | Test System: E. COLI, Strain/Indicator: WP2 UVRA (PKM101), Metabolic Activation: RAT, LIVER, S-9, KANECHLOR 500, Method: PREINCUBATION inactive; negative

NC(=O)N(CCCC(=O)O)N=O
active: [1] active; positive | [2] active; positive | Test System: E. COLI B, Strain/Indicator: H/R30R, Metabolic Activation: NONE active; positive | Test System: E. COLI B, Strain/Indicator: HS30R, Metabolic Activation: NONE active; positive

OCc1c[nH]c2ccccc12
active: Test System: MOUSE LYMPHOMA, Strain/Indicator: L5178Y (TK+/TK-), Metabolic Activation: NONE, Method: SUSPENSION/PLATE active; positive. reevaluation of results: positive | Test System: MOUSE LYMPHOMA, Strain/Indicator: L5178Y (TK+/TK-), Metabolic Activation: RAT, LIVER, S-9, AROCLOR 1254, Method: SUSPENSION/PLATE active; positive. reevaluation of results: positive
inactive: Test System: Ames Salmonella typhimurium, Strain/Indicator: TA98, Metabolic Activation: None, Method: Plate incorporation inactive; negative | Test System: Ames Salmonella typhimurium, Strain/Indicator: TA98, Metabolic Activation: None, Method: Preincubation inactive; negative | Test System: Ames Salmonella typhimurium, Strain/Indicator: TA98, Metabolic Activation: Rat, Liver, S-9, Aroclor 1254, Method: Plate incorporation inactive; negative | Test System: Ames Salmonella typhimurium, Strain/Indicator: TA98, Metabolic Activation: Rat, Liver, S-9, Aroclor 1254, Method: Preincubation inactive; negative

Nc1ccc2nc3ccccc3cc2c1
active: Test System: AMES SALMONELLA TYPHIMURIUM, Strain/Indicator: TA1535, Metabolic Activation: RAT, LIVER, S-9, TETRACHLOROBIPHENYL, Method: PREINCUBATION active; positive | Test System: AMES SALMONELLA TYPHIMURIUM, Strain/Indicator: TA1537, Metabolic Activation: NONE, Method: PREINCUBATION active; positive | Test System: AMES SALMONELLA TYPHIMURIUM, Strain/Indicator: TA1537, Metabolic Activation: RAT, LIVER, S-9, TETRACHLOROBIPHENYL, Method: PREINCUBATION active; positive | Test System: AMES SALMONELLA TYPHIMURIUM, Strain/Indicator: TA1538, Metabolic Activation: RAT, LIVER, S-9, TETRACHLOROBIPHENYL, Method: PREINCUBATION active; positive | Test System: AMES SALMONELLA TYPHIMURIUM, Strain/Indicator: TA1977, Metabolic Activation: RAT, LIVER, S-9, TETRACHLOROBIPHENYL, Method: PREINCUBATION active; positive | Test System: AMES SALMONELLA TYPHIMURIUM, Strain/Indicator: TA1978, Metabolic Activation: RAT, LIVER, S-9, TETRACHLOROBIPHENYL, Method: PREINCUBATION active; positive
inactive: [2] inactive; negative | Test System: AMES SALMONELLA TYPHIMURIUM, Strain/Indicator: TA1538, Metabolic Activation: NONE, Method: PREINCUBATION inactive; negative | Test System: AMES SALMONELLA TYPHIMURIUM, Strain/Indicator: TA1975, Metabolic Activation: RAT, LIVER, S-9, TETRACHLOROBIPHENYL, Method: PREINCUBATION inactive; negative | Test System: AMES SALMONELLA TYPHIMURIUM, Strain/Indicator: TA1977, Metabolic Activation: NONE, Method: PREINCUBATION inactive; negative

— PubChem BioAssay AID1259407 (Chemical Carcinogenesis Research Information System (CCRIS), 2018)
